{"source": "patent US9359311B2", "about": "“Substituted aromatic oligomers” (NEUROSCIOS GMBH, priority 2011, dated 2016)", "key": {"[1]": {"system": "PHF-tau doubly-phosphorylated at Thr231 and Ser235", "assay": "Phosphorylation of Tau in neurites crossing amyloid plaques, AT180 IHC, hAPPSL Tg mice", "format": "in vivo, mouse", "description": "Vehicle: Phosphate Buffered Saline (PBS; 6.7 mM PO4, 155 mM NaCl, pH=7.3-7.5) (BioWhittaker PBS from Lonza).\nTest Item (T.I.): p-FTAA and P9707_003, diluted in vehicle from stock solution in deionized water (10 mg/ml).\nTg hAPPSL: Transgenic hAPPSL mice over-expressing hAPP(751) under the control of the murine Thy-1 promoter with a C57BL/6xDBA background.\n48 hAPP Tg mice plus 4 reserves allocated to 4 different treatment groups were treated with either vehicle only (control), p-FTAA or P9707_003. As an additional control, 12 nTg littermates of the hAPPSL mice (plus 1 reserve) were treated with vehicle only. Starting at 6.5 months of age, female hAPPSL mice were treated with vehicle only, p-FTAA (dosage: 1 or 10 mg/kg/day) or P9707_003 (dosage: 10 mg/kg/day) for 90 days. The Test Items (T.I.s) were administered in Vehicle. Compound and vehicle were administered twice daily i.p. for 90 days. Tg hAPPSL mice with a C57BL/6xDBA background and corresponding nTg littermates at an age of 6.5 months (+2 weeks) were randomly assigned to the treatment groups.\nHistological evaluations were performed with six randomly chosen cryo-frozen brain hemispheres of treatment groups PBS Control, p-FTAA 1 mg/kg/day, p-FTAA 10 mg/kg/day, and P9707_003 10 mg/kg/day.\n15 cryo-sections per level (altogether 5 levels), each 10 μm thick (Leica CM 3050S) were sagittally cut. Brain levels were chosen according to the morphology atlas “The Mouse Brain” from Paxinos and Franklin (2nd edition). The cutting of the five levels started with a random slice, then sampling was continued uniformly and systematically, always retaining 15 slices per level in series and discarding 100 μm in between the levels.\nTAU phosphorylation was visualized immunohistochemically using the AT180 antibody. Clone AT180 recognizes PHF-tau doubly-phosphorylated at Thr231 and Ser235.\nFor determination of amyloid depositions 5 slices (1 from each level) per brain were stained and screened. From each slice five images were captured from 5 defined areas in the brain. The order of these positions reflect the time course of plaque deposition in the APPsl model, which starts in the frontal cortex (P11) at the age of 3 months and then spreads to the medial (P12) and dorsal cortex over age. At six months of age, plaques can be found in the medial cortex (P13), from then plaque load spreads into the hippocampal formation with hot spots in the subiculum (P14) and the dentate gyrus (P15) at the age of nine months.\nMosaic images for plaque load quantification including the whole cortex and hippocampus were recorded on a Zeiss AxioImager.Z1 microscope using high aperture lenses and an AxioVision 4.8 software driven AxioCam MRm (10× lens, 1× optocoupler). Plaques for AT180 quantifcation were imaged with a 20× lens. Detail images for qualitative figures are 40× image stacks collapsed to 2D by the extended depth of field function of AxioVision software.\nDescriptive statistical analysis was performed on all evaluated parameters, Kolmogorov Smirnov test were performed to test normal distribution of data. Data in graphs are represented as mean±SEM."}, "primary chicken neurons": {"system": "primary chicken neurons", "assay": "Inhibition of Abeta 1-42 toxicity on primary chicken neurons (MTT)", "format": "cell-based", "parameters": "key: No: no effect; +: minor positive effect on cell viability in the presence of aggregated Aβ 1-42; ++: medium positive effect on cell viability in the presence of aggregated Aβ 1-42; +++: strong positive effect on cell viability in the presence of aggregated Aβ 1-42", "settings": "10 μM Aβ1-42 aggregated together with compound for 48 h"}}, "data": [{"compound": "O=C(O)Cc1ccsc1-c1ccc(-c2sc(-c3ccc(-c4cc(CC(=O)O)c(-c5ccc(-c6sccc6CC(=O)O)s5)s4)s3)cc2CC(=O)O)s1", "note": "[Example 1, 2-(2-{5-[3-(Carboxymethyl)-5-{5-[4-(carboxymethyl)-5-{5-[3-(carboxymethyl)thiophen-2-yl]thiophen-2-yl}thiophen-2-yl]thiophen-2-yl}thiophen-2-yl]thiophen-2-yl}thiophen-3-yl)acetic acid]", "values": [{"measurement": "AT180 load", "setting": "[1]; 10 mg P9707_003 treatment, plaque sides 2 and 4", "value": "significant reduction"}, {"measurement": "AT180 IR in plaques of younger history of origin (hippocampal formation, subiculum, dentate gyrus)", "setting": "[1]; 90 days i.p., hAPPSL Tg mice", "value": "drastically reduced"}, {"measurement": "AT180 load at hippocampal plaques, reduced to", "setting": "[1]; P9707_003 10 mg/kg/day, 90 days i.p.", "value": "approximately 45%"}, {"measurement": "reduction of AT180", "setting": "[1]; P9707_003 10 mg/kg/day, 90 days i.p., positions 4 and 5", "value": "more than 40%"}, {"measurement": "Rescue of Abeta toxicity (MTT)", "setting": "primary chicken neurons; Conc. 0.1 μM", "value": "no"}, {"measurement": "Rescue of Abeta toxicity (MTT)", "setting": "primary chicken neurons; Conc. 1 μM", "value": "+++"}, {"measurement": "Rescue of Abeta toxicity (MTT)", "setting": "primary chicken neurons; Conc. 10 μM", "value": "+++"}]}]}
